The compounds below were run against MCH receptor (Homo sapiens, UniProt Q99705) (assay: High throughput functional screening FLIPR/FDSS6000: inhibition of MCH-evoked intracellular Ca2+ changes). Settings: class by percent of control at 10^-7 M or by IC50; read-out: class.
Format: cell-based
Summary of the method: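 Antagonism was measured as inhibition of calcium responses to 50 nM MCH, monitored 290 s at ex 488/em 530 nm on FLIPR or FDSS6000. Beforehand, cells bearing a constitutively active MCH receptor received Fluo4-AM (4 μM, 1 h, 37 °C) with probenecid, and test compound for 3 min.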

Compound	IC50
CN(C)c1nc(N[C@H]2CC[C@@H](NC(=O)Nc3ccc(C(F)(F)F)cc3)CC2)nc2ccccc12 [compound 136]	> 0.2 µM
CN(C)c1nc(N[C@H]2CC[C@@H](NC(=O)Nc3ccc(SC(F)(F)F)cc3)CC2)nc2ccccc12 [compound 137]	> 0.2 µM
Cc1cc(NC(=O)N[C@H]2CC[C@@H](Nc3nc(N(C)C)c4ccccc4n3)CC2)c([N+](=O)[O-])cc1C [compound 138]	> 0.2 µM
CN(C)c1nc(N[C@H]2CC[C@@H](NC(=O)Nc3ccc(OCc4ccccc4)cc3)CC2)nc2ccccc12 [compound 139]	> 0.2 µM
CN(C)c1nc(N[C@H]2CC[C@@H](NC(=O)Nc3ccc(Cc4ccccc4)cc3)CC2)nc2ccccc12 [compound 140]	> 0.2 µM
CN(C)c1nc(N[C@H]2CC[C@@H](NC(=O)Nc3ccc(Br)cc3C(F)(F)F)CC2)nc2ccccc12 [compound 141, N-[4-bromo-2-(trifluoromethyl)pheny]-N′-(cis-4-{[4-(dimethylamino)quinazolin-2-yl]amino}cyclohexyl)urea]	< 0.05 µM
CN(C)c1nc(N[C@H]2CC[C@@H](NC(=O)Nc3c(F)cc(Br)cc3F)CC2)nc2ccccc12 [compound 142, N-(4-bromo-2,6-difluorophenyl)-N′-(cis-4-{[4-(dimethylamino)quinazolin-2-yl]amino}cyclohexyl)urea]	< 0.05 µM
CN(C)c1nc(N[C@H]2CC[C@@H](NC(=O)Nc3ccc(Br)cc3Cl)CC2)nc2ccccc12 [compound 143]	> 0.2 µM
CN(C)c1nc(N[C@H]2CC[C@@H](NC(=O)NCc3ccc(Br)cc3)CC2)nc2ccccc12 [compound 144, N-(4-bromobenzyl)-N′-(cis-4-{[4-(dimethylamino)quinazolin-2-yl]amino}cyclohexyl)urea]	< 0.05 µM
CN(C)c1nc(N[C@H]2CC[C@@H](NC(=O)Nc3ccc(Cl)cc3C(F)(F)F)CC2)nc2ccccc12 [compound 145, N-[4-chloro-2-(trifluoromethyl)phenyl]-N′-(cis-4-{[4-(dimethylamino)quinazolin-2-yl]amino}cyclohexyl)urea]	< 0.05 µM
Cc1cc(Cl)ccc1NC(=O)N[C@H]1CC[C@@H](Nc2nc(N(C)C)c3ccccc3n2)CC1 [compound 146]	< 0.05 µM
CN(C)c1nc(N[C@H]2CC[C@@H](NC(=O)Nc3ccc(Cl)cc3[N+](=O)[O-])CC2)nc2ccccc12 [compound 147]	> 0.2 µM
CN(C)c1nc(N[C@H]2CC[C@@H](NC(=O)Nc3ccc(Cl)c(C(F)(F)F)c3)CC2)nc2ccccc12 [compound 148]	> 0.2 µM
CN(C)c1nc(N[C@H]2CC[C@@H](NC(=O)Nc3ccc(C#N)cc3)CC2)nc2ccccc12 [compound 149, N-(4-cyanophenyl)-N′-(cis-4-{[4-(dimethylamino)quinazolin-2-yl]amino}cyclohexyl)urea]	< 0.05 µM
CCOc1ccc(NC(=O)N[C@H]2CC[C@@H](Nc3nc(N(C)C)c4ccccc4n3)CC2)cc1 [compound 150, N-(cis-4-{[4-(dimethylamino)quinazolin-2-yl]amino}cyclohexyl)-N′-(4-ethoxyphenyl)urea]	0.05 to 0.2 µM
CN(C)c1nc(N[C@H]2CC[C@@H](NC(=O)Nc3ccccc3OC(F)(F)F)CC2)nc2ccccc12 [compound 152]	> 0.2 µM
CC(=O)c1cccc(NC(=S)N[C@H]2CC[C@@H](Nc3nc(N(C)C)c4ccccc4n3)CC2)c1 [compound 153]	> 0.2 µM
CC(=O)c1ccc(NC(=S)N[C@H]2CC[C@@H](Nc3nc(N(C)C)c4ccccc4n3)CC2)cc1 [compound 154]	> 0.2 µM
CN(C)c1nc(N[C@H]2CC[C@@H](NC(=S)Nc3cc(C(F)(F)F)cc(C(F)(F)F)c3)CC2)nc2ccccc12 [compound 155]	> 0.2 µM
CN(C)c1nc(N[C@H]2CC[C@@H](NC(=S)NCc3ccccc3)CC2)nc2ccccc12 [compound 156]	> 0.2 µM
CN(C)c1nc(N[C@H]2CC[C@@H](NC(=S)Nc3cccc(Br)c3)CC2)nc2ccccc12 [compound 157, N-(3-bromopheny)-N′-(cis-4-{[4-(dimethylamino)quinazolin-2-yl]amino}cyclohexyl)thiourea]	> 0.2 µM

— patent US20070010671A1, “Novel quinazoline derivatives and methods of treatment related to the use thereof” (priority 2003, published 2007)
